Reference: patent publication US9486506B2 (Novo Nordisk A/S, priority 2011, dated 2016)
Numbered stars: 1 amine (or outer) side, 2 acyl side, 3 side chain; on linkers, the order of the positions; unused ones are H or OH. Side chains are listed from the residue outwards. Peptide text beside a SMILES is read from it. * marks the point of attachment. C18 diacid = O=C(O)CCCCCCCCCCCCCCCCC(=O)*; γGlu = O=C(O)[C@H](CCC(=O)[*:2])N[*:1]; AEEA = NCCOCCOCC(=O)O

Key:
[1] = Assay (XI) Pharmacokinetic study in minipigs; format: in vivo, Göttingen minipigs; details: i.v. administration, terminal half-life
Experimental: Buffer: • 50 mM Dinatriumphosphatdihydrat • 184 mM Propylenglycol • 58 mM Phenol • pH adjusted to 8.15 with H3PO4. In cases where pH was adjusted to 8.15 after re-suspension of analogues, 0.2 M NaOH was used. Assay (XI) Pharmacokinetic Study in Minipigs
This is done in a pharmacokinetic (PK) study, whereamong other parameters the terminal half-life and the clearance of the derivative in question is determined. Increasing the terminal half-life and decreasing the clearance means that the compound of study is eliminated slower from the body.
Male or female Göttingen minipigs were obtained from Ellegaard Göttingen Minipigs (Dalmose, Denmark) approximately 7-14 months of age and weighing from approximately 16-35 kg were used in the studies. The minipigs were housed either individually (pigs with permanent catheters) or in a group and fed restrictedly once or twice daily with SDS minipig diet (Special Diets Services, Essex, UK). In some studies two permanent central venous catheters were implanted in vena cava caudalis or cranialis in each animal after at least 2 weeks of acclimatisation. […] On each dosing occasion these pigs were instrumented with a venflon in one ear vein through which the derivatives were dosed. Blood sampling was done by venipuncture in v. jugularis or v. cava cranialis
The animals were either unfasted or fasted for approximately 18 h before dosing and from 0 to 4 h after dosing, but had ad libitum access to water during the whole period.
Intravenous injections (the volume corresponding to usually 2-3 nmol/kg, for example 0.1 ml/kg) of the compounds were given through one catheter or through the venflon, and blood was sampled at predefined time points for up till 13 days post dosing (preferably through the other catheter or by venipuncture). Blood samples (for example 0.8 ml) were collected in tubes with EDTA buffer (8 mM) (sometimes aprotinin 500 KIU/ml blood was added) and then centrifuged at 4° C. and 1942 G for 10 minutes. […] Based on these measurements, time-plasma concentration profiles for the compound of study are plotted and a so-called non-compartmental pharmacokinetic analysis of the data is performed in WinNonlin v. 5.0 or Phoenix v. 6.2 (Pharsight Inc., Mountain View, Calif., USA) or other relevant software for PK analysis. For most compounds, the terminal part of the plasma-concentration profiles will be linear when drawn in a semi-logarithmic plot, reflecting that after the initial distribution, drug is removed from the body at a constant fractional rate. The rate (lambda Z or is equal to minus the slope of the terminal part of the plot. From this rate, also the terminal half-life may be calculated, as t½=ln(2)/λz (see, e.g., Johan Gabrielsson and Daniel Weiner: Pharmacokinetics and Pharmacodynamic Data Analysis. Concepts & Applications, 3rd Ed., Swedish Pharmaceutical Press, Stockholm (2000)).
Clearance is defined as the dose (D) divided by area under the curve (AUC) on the plasmaconcentration versus time profile (Rowland, M and Tozer T N: Clinical Pharmacokinetics: Concepts and Applications, 3rd edition, 1995 Williams Wilkins)

[2] = Assay (X) Chemical stability assessment by RP-UPLC; format: physicochemical; details: pH 8.15, 14 days at 37° C. vs 5° C., 333 μM

SMILES: CC(C)C[C@H](NC(=O)[C@H](CC(=O)O)NC(=O)[C@H](CC(C)C)NC(=O)[C@H](Cc1ccc(O)cc1)NC(=O)[C@H](CCCCN)NC(=O)[C@H](CO)NC(=O)[C@H](Cc1ccc(O)cc1)NC(=O)[C@H](CC(=O)O)NC(=O)[C@H](CO)NC(=O)[C@@H](NC(=O)[C@H](Cc1ccccc1)NC(=O)[C@@H](NC(=O)CNC(=O)[C@H](CCC(N)=O)NC(=O)[C@H](CO)NC(=O)[C@@H](N)Cc1c[nH]cn1)[C@@H](C)O)[C@@H](C)O)C(=O)N[C@@H](CCCNC(=N)N)C(=O)N[C@@H](CCCNC(=N)N)C(=O)N[C@@H](C)C(=O)N[C@@H](CCC(N)=O)C(=O)N[C@@H](CC(=O)O)C(=O)N[C@@H](Cc1ccccc1)C(=O)N[C@H](C(=O)N[C@@H](CCCCNC(=O)CC[C@H](NC(=O)CC[C@H](NC(=O)COCCOCCNC(=O)COCCOCCNC(=O)CC[C@H](NC(=O)CCCCCCCCCCCCCCCCC(=O)O)C(=O)O)C(=O)O)C(=O)O)C(=O)N[C@@H](Cc1c[nH]c2ccccc12)C(=O)N[C@@H](CC(C)C)C(=O)N[C@@H](CC(C)C)C(=O)N[C@@H](CO)C(=O)N[C@H](C(=O)O)[C@@H](C)O)C(C)C [Example 13, N^ε24-[(4S)-4-carboxy-4-[[(4S)-4-carboxy-4-[[2-[2-[2-[[2-[2-[2-[[(4S)-4-carboxy-4-(17-carboxyheptadecanoylamino)butanoyl]amino]ethoxy]ethoxy]acetyl]amino]ethoxy]ethoxy]acetyl]amino]butanoyl]amino]butanoyl]-[Leu^16,Lys^24,Leu^27,Ser^25]-Glucagon] (H-HSQGTFTSDYSKYLDLRRAQDFVK([γGlu-γGlu-AEEA-AEEA-γGlu-C18 diacid])WLLST-OH; N-terminus and C-terminus assumed)
- half-life ([1]; minipig, in vivo, iv, read-out: iv PK minipig [T½] (converted)): 76.4 h
- Chemical stability [Purity loss/14 days 37 C.] [2]: 5.1%

SMILES: CC(C)C[C@H](NC(=O)[C@H](Cc1c[nH]c2ccccc12)NC(=O)[C@H](CCCCNC(=O)CC[C@H](NC(=O)CC[C@H](NC(=O)COCCOCCNC(=O)COCCOCCNC(=O)CC[C@H](NC(=O)CCCCCCCCCCCCCCCCC(=O)O)C(=O)O)C(=O)O)C(=O)O)NC(=O)[C@@H](NC(=O)[C@H](Cc1ccccc1)NC(=O)[C@H](CCC(=O)O)NC(=O)[C@H](CCC(N)=O)NC(=O)[C@H](C)NC(=O)[C@H](CCCNC(=N)N)NC(=O)[C@H](CCCNC(=N)N)NC(=O)[C@@H](NC(=O)[C@H](CC(=O)O)NC(=O)[C@H](CC(C)C)NC(=O)[C@H](Cc1ccc(O)cc1)NC(=O)[C@H](CCCCN)NC(=O)[C@H](CO)NC(=O)[C@@H](NC(=O)[C@H](CC(=O)O)NC(=O)[C@H](CO)NC(=O)[C@@H](NC(=O)[C@H](Cc1ccccc1)NC(=O)[C@@H](NC(=O)CNC(=O)[C@H](CCC(N)=O)NC(=O)[C@H](CO)NC(=O)[C@@H](N)Cc1c[nH]cn1)[C@@H](C)O)[C@@H](C)O)C(C)C)[C@@H](C)O)C(C)C)C(=O)N[C@@H](CC(C)C)C(=O)N[C@@H](CO)C(=O)N[C@H](C(=O)O)[C@@H](C)O [Example 38, N^ε24-[(4S)-4-carboxy-4-[[(4S)-4-carboxy-4-[[2-[2-[2-[[2-[2-[2-[[(4S)-4-carboxy-4-(17-carboxyheptadecanoylamino)butanoyl]amino]ethoxy]ethoxy]acetyl]amino]ethoxy]ethoxy]acetyl]amino]butanoyl]amino]butanoyl]-[Val10,Thr16,Glu21,Lys24,Leu27,Ser28]-Glucagon] (H-HSQGTFTSDVSKYLDTRRAQEFVK([γGlu-γGlu-AEEA-AEEA-γGlu-C18 diacid])WLLST-OH)
- iv PK minipig [T½] [1]: 83.0 h
- Chemical stability [Purity loss/14 days 37 C.] [2]: 4.2%
